Laboratory results published in patent publication US20050048596A1, “Assay for detecting changes in mitochondrial membrane permeability and method of using same” (priority 2003, published 2005).

Assays:
MPT pore [1] = assay: Enzymatic assay (ADH/NADH oxidase/HRP/Amplex Red) of calcium-induced pyridine nucleotide release from isolated liver mitochondria, Resorufin fluorescence; assay type: biochemical, rat; details: BA 20 μM; calcium 100 μM; isolated liver mitochondria 0.125 mg/ml protein; FIG. 5
Protocol: FIG. 5 illustrates the recording of fluorescence intensity following calcium additions to isolated liver mitochondria in the assay mixture. Controls; only calcium (100 μM) was added. BA; the same amount of calcium (100 μM) was added to mitochondria incubated in the presence of 20 μM Bongrekig acid.
In one preferred embodiment, the assay for pyridine nucleotides measurement may comprise several enzymatic reactions—cyclic and/or coupled—which use oxidized or reduced form of nicotinamide adenine dinucleotides (NAD^+, NADH, respectively) as substrate, thereby providing a detectable final product (FIG. 1). In the first step shown in FIG. 1, alcohol dehydrogenase (ADH) converts ethanol to acetaldehyde in the presence of NAD^+, which is released from mitochondria and reduced to NADH. In the next reaction NADH oxidase (Ox) oxidizes NADH back to NAD^+, and hydrogen peroxide (H2O2) is produced from water in the process. In the last reaction, horseradish peroxidase (HRP) produces a detectable signal in the presence of hydrogen peroxide. […]
Experiments with isolated liver mitochondria were carried out in the same medium as those without; however, no substrate was added, since respiring mitochondria produce superoxide (O2^−). […] Leakage of H2O2 into the medium is expected to give a increase in fluorescence intensity which is not due to the release of pyridine nucleotides from mitochondria. […]

MPT pore [2] = assay: Calcium-induced swelling of isolated liver mitochondria, light scattering at 540 nm; assay type: biochemical, rat; details: BA 20 μM; calcium 100 μM; no enzymes in medium; FIG. 6
Text: FIG. 6 illustrates calcium-induced swelling of mitochondria isolated from whole liver. The swelling is detected by recording the light scattering of mitochondrial suspension at 540 nm. Experimental conditions are the same as described in FIG. 5, except no enzymes were present in the medium.
The opening of the MPT pore leads to osmotic swelling of mitochondria, which can be detected as decreased light scattering. […] However, a more significant and progressive decrease in light scattering starting at about 300 sec. following the initial calcium pulse occurred.
Male Wistar rats weighing about 300 g were used for isolation of rat liver mitochondria. For examination of calcium-induced release of NAD^+, 0.125 mg/ml of mitochondrial protein were used. The mitochondria were incubated in 2ml of the reaction buffer containing all compounds required for the assay.

Structure (SMILES): CO[C@H](C/C=C\C=C\CC/C=C/C[C@H](C)/C=C/C(=C\C(=O)O)CC(=O)O)/C(C)=C\C=C(/C)C(=O)O [BA, Bongkrekic acid]
- increase in fluorescence following calcium addition (release of pyridine nucleotides) (MPT pore [1]): blocked
- calcium-induced swelling of mitochondria (decrease in light scattering at 540 nm) (MPT pore [2]): inhibited
